Laboratory results from article PMC4971072, “Chemically Homogenous Compounds with Antagonistic Properties at All α1-Adrenoceptor Subtypes but not β1-Adrenoceptor Attenuate Adrenaline-Induced Arrhythmia in Rats” (Frontiers in Pharmacology, 2016).
Counter-ions that a name gives are not always drawn.

Columns and labels:
[1] = target: α1-adrenoceptor; conditions: rat cerebral cortex, [3H]-prazosin; ref Pytka et al. (2015); read-out: Adrenergic receptors Ki α1; cited from earlier work
[2] = target: T1, β1-adrenergic receptor (Rattus norvegicus, UniProt P18090); assay: β1-adrenoceptor radioligand binding assay ([3H]-CGP-12177, rat cerebral cortex); conditions: read-out: Adrenergic receptors Ki β1
T1 construct: The brains were homogenized in 20 volumes of an ice-cold 50 mM Tris-HCl buffer; from tissue; host or cells: rat cerebral cortex membranes
T1 sequence (P18090 whole entry): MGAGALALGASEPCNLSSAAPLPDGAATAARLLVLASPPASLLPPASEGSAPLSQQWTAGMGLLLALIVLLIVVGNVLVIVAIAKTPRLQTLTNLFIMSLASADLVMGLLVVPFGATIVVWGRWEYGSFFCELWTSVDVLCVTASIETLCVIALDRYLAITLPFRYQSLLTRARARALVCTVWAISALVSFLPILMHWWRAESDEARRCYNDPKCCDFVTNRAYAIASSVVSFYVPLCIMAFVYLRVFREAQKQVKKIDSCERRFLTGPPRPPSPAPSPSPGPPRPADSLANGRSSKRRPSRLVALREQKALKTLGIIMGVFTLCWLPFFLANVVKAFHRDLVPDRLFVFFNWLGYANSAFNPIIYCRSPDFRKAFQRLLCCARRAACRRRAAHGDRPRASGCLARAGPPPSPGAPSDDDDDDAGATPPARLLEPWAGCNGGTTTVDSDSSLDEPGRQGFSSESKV
Procedure: The α1- and β1-adrenoceptor radioligand binding assay was performed on rat cerebral cortex. […] The cell pellet was resuspended in the Tris–HCl buffer and centrifuged again. Radioligand binding assays were performed in plates (MultiScreen/Millipore). […] The incubation was terminated by rapid filtration through glass fiber filters (Whatman GF/C) using a vacuum manifold (Millipore). The filters were then washed twice with the assay buffer and placed in scintillation vials with a liquid scintillation cocktail. […] All the assays were made in duplicate and the inhibitory constants (Ki) were estimated.
LO–labeled ligand concentration, KD–dissociation constant of labeled ligand

[3] = test system: α1-adrenergic receptor subtypes; assay: Comparison of functional affinities across α1-adrenoceptor subtypes (rat tail artery, mouse spleen, rat aorta); type: biochemical; conditions: from difference in pA2 values
Procedure: The isolated artery, cut into ~4 mm long rings, was then horizontally put up between two stainless steel hooks (diameter 0.15 mm). One hook was fastened to the bottom of the chamber and the other to an isometric FDT10-A force displacement transducer (DMT Model 750TOBS, Denmark), linked with Powerlab 4/26 analyzer (ADInstruments), and processed by LabChart 7 software. […] The initial optimal tissues tension was set at 0.75 g. Chloroethylclonidine (3 μM) as the preferential α1B-adrenoreceptor alkylating agent was used during incubation and after 30 min it was completely washed off. Through 100 min of equilibration tissues were stimulated with noradrenaline (1 μM) four times with washing out until the contractile response become constant. Two cumulative concentration-response curves to noradrenaline, at an interval of 60 min, were established on each arterial ring both in the presence and absence of antagonist. The incubation with antagonists went on for 30 min. The experiments were carried out in the constant presence of yohimbine (0.1 μM) and propranolol (1 μM) to block α2- and β-adrenoceptors, respectively in order to minimize the involvement of these adrenoceptors in the response to noradrenaline.
The influence on α1B-adrenoceptors was evaluated using the isolated mouse spleen. The spleen was removed from male mice right after killing the anesthetized animal by cervical dislocation. […]

SMILES | Ki [2] | Ki [1] | α1A-adrenoceptor blockade relative to α1B subtype (fold stronger) [3]
COc1ccccc1N1CCN(CCOCCOc2c(C)cccc2C)CC1.Cl [HBK-14, 1-[(2,6-dimethylphenoxy)ethoxyethyl]-4-(2-methoxyphenyl)piperazine hydrochloride] | – | 0.0228 µM | –
COc1ccccc1N1CCN(CCCOc2cc(C)ccc2Cl)CC1 [HBK-16, 1N-[3-(2-chloro-5-methylphenoxy)propyl]-4N-(2-methoxyphenyl)piperazine hydrochloride] | > 10 µM | – | –
COc1ccccc1N1CCN(CCOCCOc2c(C)cccc2Cl)CC1.Cl [HBK-15, 1-[(2-chloro-6-methylphenoxy)ethoxyethyl]-4-(2-methoxyphenyl)piperazine hydrochloride] | – | 0.0131 µM | –

Now from value to molecule, other results behind:

Ki [2] | SMILES | Ki [1] | α1A-adrenoceptor blockade relative to α1B subtype (fold stronger) [3]
> 10 µM | COc1ccccc1N1CCN(CCCOc2cc(C)cc(C)c2C)CC1 [HBK-19, 1N-[3-(2,3,5-trimethylphenoxy)propyl]-4N-(2-methoxyphenyl)piperazine hydrochloride] | – | around seven-fold
> 10 µM | COc1ccccc1N1CCN(CCCOc2c(C)cc(C)cc2C)CC1 [HBK-18, 1N-[3-(2,4,6-trimethylphenoxy)propyl]-4N-(2-methoxyphenyl)piperazine hydrochloride] | – | –
